Where two headings read alike, the source gives them in different places.

This test addresses T1, human PAH with the R408W mutation (Homo sapiens, UniProt P00439, R408W).
T1 construct: expressed in transfected cells
T1 sequence (P00439 1-452 R408W): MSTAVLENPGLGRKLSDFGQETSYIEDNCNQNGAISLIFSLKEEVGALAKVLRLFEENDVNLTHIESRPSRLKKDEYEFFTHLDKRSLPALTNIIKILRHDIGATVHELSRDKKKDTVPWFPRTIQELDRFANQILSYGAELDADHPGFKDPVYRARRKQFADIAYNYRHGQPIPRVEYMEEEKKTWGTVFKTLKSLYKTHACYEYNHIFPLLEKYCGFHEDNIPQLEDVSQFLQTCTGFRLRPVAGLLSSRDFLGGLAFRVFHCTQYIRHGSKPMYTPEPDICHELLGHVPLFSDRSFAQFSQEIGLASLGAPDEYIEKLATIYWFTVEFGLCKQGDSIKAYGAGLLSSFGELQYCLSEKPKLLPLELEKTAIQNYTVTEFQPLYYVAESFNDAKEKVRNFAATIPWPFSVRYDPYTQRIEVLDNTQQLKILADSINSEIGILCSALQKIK
Put plainly: Cell Based Phenylalanine Flux Assay. The note with it: A375 cells expressing human R408W PAH, 13C-Tyrosine by LC-MS, average where tested multiple times, read-out: AC50.

By AC50 is commonly meant the midpoint of the concentration-response curve, whichever way the signal moves. Turning to `O=C(c1sc(N2CCOCC2)nc1C(F)(F)F)N1CCc2[nH]cnc2[C@H]1c1nc2c(F)cccc2s1` [Example 1633, (S)-(4-(4-fluorobenzo[d]thiazol-2-yl)-6,7-dihydro-1H-imidazo[4,5-c]pyridin-5(4H)-yl)(2-morpholino-4-(trifluoromethyl)thiazol-5-yl)methanone], the AC50 (24 hrs compound incubation) is under 500 nM. Still for that read-out and setting: as for `O=C(c1oc(-c2ccccn2)nc1C1CC1)N1CCc2[nH]cnc2[C@@H]1c1nc2cccc(F)c2s1` [Example 1557, (R)-(4-cyclopropyl-2-(pyridin-2-yl)oxazol-5-yl)(4-(7-fluorobenzo[d]thiazol-2-yl)-6,7-dihydro-1H-imidazo[4,5-c]pyridin-5(4H)-yl)methanone], the figure is 500 to 1000 nM. As for `O=C(c1nc2ccccc2s1)N1CCc2[nH]cnc2C1c1nc2ccc(F)cc2[nH]1` (stereo not shown), the AC50 (24 hrs with compound) is over 5000 nM. On to `O=C(c1ocnc1C(F)(F)F)N1CCc2[nH]cnc2[C@@H]1c1nc2c(F)cccc2s1` [Example 1494, (R)-(4-(4-fluorobenzo[d]thiazol-2-yl)-6,7-dihydro-1H-imidazo[4,5-c]pyridin-5(4H)-yl)(4-(trifluoromethyl)oxazol-5-yl)methanone], for which the AC50 (24 hrs compound incubation) is under 500 nM. Turning to `O=C(c1ncn2ccccc12)N1CCc2[nH]cnc2[C@@H]1c1nc2ccc(F)cc2s1` (single isomer, unassigned), where the note is “24 hrs with compound”, the AC50 is over 5000 nM. `O=C(CCc1nc2ccccc2o1)N1CCc2[nH]cnc2C1c1nc2ccccc2[nH]1` (stereo not shown): for the setting “24 hrs with compound”, the AC50 is over 5000 nM. Turning to `CN(C)Cc1ccc2c(C(=O)N3CCc4[nH]cnc4[C@H]3c3nc4c(F)cccc4s3)cnn2c1` [Example 1619, (S)-(6-((dimethylamino)methyl)pyrazolo[1,5-a]pyridin-3-yl)(4-(4-fluorobenzo[d]thiazol-2-yl)-6,7-dihydro-1H-imidazo[4,5-c]pyridin-5(4H)-yl)methanone], the AC50 (24 hrs compound incubation) was 500 to 1000 nM. In the case of `O=C(c1cnn2ccc(F)cc12)N1CCc2[nH]cnc2[C@@H]1c1nc2ccccc2s1` [Example 1104, (R)-(4-(benzo[d]thiazol-2-yl)-6,7-dihydro-1H-imidazo[4,5-c]pyridin-5(4H)-yl)(5-fluoropyrazolo[1,5-a]pyridin-3-yl)methanone], for the setting “24 hrs compound incubation”, the AC50 lay within 1000 to 5000 nM.

On to `O=C(Cc1nccs1)N1CCc2[nH]cnc2C1c1nc2ccc(Cl)cc2[nH]1` (stereo not shown), for which the AC50 (24 hrs with compound) fell in the range of 1000 to 5000 nM. Turning to `Cc1nnc(C(=O)N2CCc3[nH]cnc3[C@H]2c2nc3ccccc3s2)s1` [Example 1041], the AC50 (24 hrs compound incubation) fell in the range of 1000 to 5000 nM. Turning to `COc1cccc(CCCC(=O)N2CCc3[nH]cnc3[C@H]2c2nc3ccccc3[nH]2)c1` [Example 919, (S)-1-(4-(1H-benzo[d]imidazol-2-yl)-6,7-dihydro-1H-imidazo[4,5-c]pyridin-5(4H)-yl)-4-(3-methoxyphenyl)butan-1-one], the AC50 (24 hrs compound incubation) was 1000 to 5000 nM. As to `COCc1cc(C(=O)N2CCc3[nH]cnc3C2c2nc3c(F)cccc3s2)n(C)n1` (stereo not shown), under “24 hrs with compound”, the AC50 was in the range of 1000 to 5000 nM. For `O=C(c1oc(C2(O)CC2)nc1C(F)(F)F)N1CCc2[nH]cnc2[C@H]1c1nc2c(F)cccc2s1` [Example 2185, (S)-(4-(4-fluorobenzo[d]thiazol-2-yl)-1,4,6,7-tetrahydro-5H-imidazo[4,5-c]pyridin-5-yl)(2-(1-hydroxycyclopropyl)-4-(trifluoromethyl)oxazol-5-yl)methanone], the AC50 (24 hrs compound incubation) was under 500 nM.

Regarding `Cc1nc(C(C)(C)F)oc1C(=O)N1CCc2[nH]cnc2[C@H]1c1nc2ccccc2s1` [Example 1497], the AC50 (24 hrs compound incubation) was under 500 nM. Take `C[C@H](O)c1nc(C(F)F)c(C(=O)N2CCc3[nH]cnc3[C@H]2c2nc3c(C(F)(F)F)cccc3s2)o1` [Example 2113, (4-(difluoromethyl)-2-((S)-1-hydroxyethyl)oxazol-5-yl) ((S)-4-(4-(trifluoromethyl)benzo[d]thiazol-2-yl)-6,7-dihydro-1H-imidazo[4,5-c]pyridin-5(4H)-yl)methanone]: the AC50 (24 hrs compound incubation) was under 500 nM. On the same count and under the same terms, as for `O=C(c1nccs1)N1CCc2[nH]cnc2[C@H]1c1nc2ccccc2s1` [Example 1007], the figure is under 500 nM; as for `O=C(c1ccnn1-c1ccccc1)N1CCc2[nH]cnc2[C@@H]1c1nc2c(F)cccc2s1` [Example 1606, (R)-(4-(4-fluorobenzo[d]thiazol-2-yl)-6,7-dihydro-1H-imidazo[4,5-c]pyridin-5(4H)-yl)(1-phenyl-1H-pyrazol-5-yl)methanone], 1000 to 5000 nM; as for `O=C(c1cnn2ccc(Cl)cc12)N1CCc2[nH]cnc2[C@H]1c1nc2ccccc2s1` [Example 1107], under 500 nM.

As to `Cc1ccc2c(C(=O)N3CCc4[nH]cnc4[C@H]3c3nc4c(C)cccc4s3)cnn2c1` [Example 1295, (S)-(4-(4-methylbenzo[d]thiazol-2-yl)-6,7-dihydro-1H-imidazo[4,5-c]pyridin-5(4H)-yl)(6-methylpyrazolo[1,5-a]pyridin-3-yl)methanone], the AC50 (24 hrs compound incubation) was in the range of 500 to 1000 nM. The same measure, in the same setting: under “(R)-(4-(benzo[d]thiazol-2-yl)-6,7-dihydro-1H-imidazo[4,5-c]pyridin-5(4H)-yl)(6-bromopyrazolo[1,5-a]pyridin-3-yl)methanone [Example 1046]” stands 1000 to 5000 nM. On the same count and under the same terms, under `O=C(c1cc(C(F)(F)F)n[nH]1)N1CCc2[nH]cnc2[C@H]1c1nc2c(F)cccc2s1` [Example 1816, (S)-(4-(4-fluorobenzo[d]thiazol-2-yl)-6,7-dihydro-1H-imidazo[4,5-c]pyridin-5(4H)-yl)(3-(trifluoromethyl)-1H-pyrazol-5-yl)methanone] stands 1000 to 5000 nM; under `N#Cc1nc(OCCC(F)(F)F)oc1C(=O)N1CCc2[nH]cnc2[C@H]1c1nc2ccccc2s1` [Example 1674, (S)-5-(4-(benzo[d]thiazol-2-yl)-4,5,6,7-tetrahydro-1H-imidazo[4,5-c]pyridine-5-carbonyl)-2-(3,3,3-trifluoropropoxy)oxazole-4-carbonitrile], 500 to 1000 nM; under `O=C(Cc1nc(C(F)(F)F)cs1)N1CCc2[nH]cnc2[C@H]1c1nc2ccccc2s1` [Example 1033], 500 to 1000 nM. With `Cn1nc(Cl)cc1C(=O)N1CCc2[nH]cnc2[C@@H]1c1nc2ccccc2s1` [Example 1924, (R)-(4-(benzo[d]thiazol-2-yl)-6,7-dihydro-1H-imidazo[4,5-c]pyridin-5(4H)-yl)(3-chloro-1-methyl-1H-pyrazol-5-yl)methanone], the AC50 (24 hrs compound incubation) was in the range of 1000 to 5000 nM. With `O=C(c1ccno1)N1CCc2[nH]cnc2[C@H]1c1nc2ccccc2[nH]1` [(S)-(4-(1H-benzo[d]imidazol-2-yl)-6,7-dihydro-1H-imidazo[4,5-c]pyridin-5(4H)-yl)(isoxazol-5-yl)methanone], the AC50 (24 hrs with compound) was in the range of 1000 to 5000 nM.

Turning to `Cc1nnc(C(=O)N2CC3(CC3)c3[nH]cnc3[C@H]2c2nc3ccccc3s2)o1` [Example 1686, (S)-(4′-(benzo[d]thiazol-2-yl)spiro[cyclopropane-1,7′-imidazo[4,5-c]pyridin]-5′(1′H,4′H,6′H)-yl)(5-methyl-1,3,4-oxadiazol-2-yl)methanone], where the note is “24 hrs compound incubation”, the AC50 is 500 to 1000 nM.

With `COCCn1nccc1C(=O)N1CCc2[nH]cnc2[C@@H]1c1nc2c(F)cccc2s1` [Example 1724, (R)-(4-(4-fluorobenzo[d]thiazol-2-yl)-6,7-dihydro-1H-imidazo[4,5-c]pyridin-5(4H)-yl)(1-(2-methoxyethyl)-1H-pyrazol-5-yl)methanone], for the setting “24 hrs compound incubation”, the concentration at half-maximal activity (AC50) is under 500 nM. The same measure, in the same setting: under `O=C(c1ccon1)N1CCc2[nH]cnc2[C@@H]1c1nc2ccc(Cl)cc2[nH]1` [Example 970, (R)-(4-(6-chloro-1H-benzo[d]imidazol-2-yl)-6,7-dihydro-1H-imidazo[4,5-c]pyridin-5(4H)-yl)(isoxazol-3-yl)methanone] stands 1000 to 5000 nM.

These data come from patent publication US20250171438A1 (Agios Pharmaceuticals, Inc., priority 2022, published 2025).
